Data as given in PubChem BioAssay AID248 (DTP/NCI, 2004).
Values joined by “and” are separate entries in the source; they are usually repeats but may differ in a detail not shown here. Equal entries are not always repeated. Toxic doses and inconclusive results are not listed. Rule as the data show it: active = T/C of 150% or more; inactive = T/C below 125%.

System: L1210 leukemia ip in BDF1 mice, survival T/C
Test: NCI In Vivo Anticancer Drug Screen. Data for tumor model L1210 Leukemia (intraperitoneal) in B6D2F1 (BDF1) mice
Conditions: endpoint: mean survival time, higher = longer survival
Summary of the method: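 Antitumor effect is assessed in tumor-bearing animals. Survival in the compound arm is compared with a vehicle-dosed control arm and expressed as their quotient.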

[1] = dose: 100.0 mg/kg/injection, schedule: Q04DX003 (ip), vehicle: saline with Tween-80
[2] = dose: 100.0 mg/kg/injection, schedule: Q01DX009 (ip), vehicle: saline with Tween-80
[3] = dose: 200.0 mg/kg/injection, schedule: Q01DX009 (ip), vehicle: saline with Tween-80
[4] = dose: 200.0 mg/kg/injection, schedule: Q04DX003 (ip), vehicle: saline with Tween-80
[5] = dose: 400.0 mg/kg/injection, schedule: Q01DX009 (ip), vehicle: saline with Tween-80
[6] = dose: 400.0 mg/kg/injection, schedule: Q04DX003 (ip), vehicle: saline with Tween-80
[7] = dose: 75.0 mg/kg/injection, schedule: Q01DX001 (ip), vehicle: saline
[8] = dose: 150.0 mg/kg/injection, schedule: Q01DX001 (ip), vehicle: saline
[9] = dose: 100.0 mg/kg/injection, schedule: Q01DX001 (ip), vehicle: Klucel (hydroxypropylcellulose) (HPC)
[10] = dose: 100.0 mg/kg/injection, schedule: Q04DX003 (ip), vehicle: Klucel (hydroxypropylcellulose) (HPC)
[11] = dose: 200.0 mg/kg/injection, schedule: Q01DX001 (ip), vehicle: Klucel (hydroxypropylcellulose) (HPC)
[12] = dose: 200.0 mg/kg/injection, schedule: Q04DX003 (ip), vehicle: Klucel (hydroxypropylcellulose) (HPC)
[13] = dose: 400.0 mg/kg/injection, schedule: Q04DX003 (ip), vehicle: Klucel (hydroxypropylcellulose) (HPC)

Measured: T/C

C1COC2(OC1)OCCCO2
inactive: dose: 100.0 mg/kg/injection, schedule: Q04DX002 (ip), vehicle: Klucel (hydroxypropylcellulose) (HPC) 108 % of control | dose: 200.0 mg/kg/injection, schedule: Q04DX002 (ip), vehicle: Klucel (hydroxypropylcellulose) (HPC) 105 % of control | dose: 400.0 mg/kg/injection, schedule: Q04DX002 (ip), vehicle: Klucel (hydroxypropylcellulose) (HPC) 105 % of control

CCCSCCSCCC
inactive: dose: 25.0 mg/kg/injection, schedule: Q04DX003 (ip), vehicle: saline with Tween-80 104 % of control | dose: 50.0 mg/kg/injection, schedule: Q04DX003 (ip), vehicle: saline with Tween-80 102 % of control | [1] 104 % of control and 90 % of control

C=CCOC(=O)c1ccccc1N
inactive: [2] 98 % of control | [1] 104 % of control | [3] 98 % of control | [4] 101 % of control

O=C(CCCc1ccc([N+](=O)[O-])cc1)Nc1ccc(S(=O)(=O)F)cc1
inactive: dose: 100.0 mg/kg/injection, schedule: Q01DX001 (ip), vehicle: saline 101 % of control | dose: 200.0 mg/kg/injection, schedule: Q01DX001 (ip), vehicle: saline 100 % of control | dose: 400.0 mg/kg/injection, schedule: Q01DX001 (ip), vehicle: saline 97 % of control

C=NC1CCCCC1
inactive: dose: 100.0 mg/kg/injection, schedule: Q04DX002 (ip), vehicle: gum acacia 105 % of control | dose: 200.0 mg/kg/injection, schedule: Q04DX002 (ip), vehicle: gum acacia 105 % of control | dose: 400.0 mg/kg/injection, schedule: Q04DX002 (ip), vehicle: gum acacia 92 % of control

COC(=O)C(CSCSC)NC(=O)NC1CCCCC1 (stereo not drawn)
inactive: [2] 91 % of control | [1] 102 % of control | [3] 91 % of control | [4] 89 % of control | [5] 91 % of control | [6] 91 % of control

CCCCCCC(C)CC(CCCCCC)NCCOC(=O)c1ccc([N+](=O)[O-])cc1 (stereo not drawn)
inactive: [7] 105 % of control | [8] 100 % of control | dose: 300.0 mg/kg/injection, schedule: Q01DX001 (ip), vehicle: saline 121 % of control

Nc1nc(N)nc(-c2ccc(NC(=O)c3ccccc3[N+](=O)[O-])cc2)n1
inactive: dose: 50.0 mg/kg/injection, schedule: Q04DX003 (ip), vehicle: Klucel (hydroxypropylcellulose) (HPC) 100 % of control | [9] 97 % of control | [10] 106 % of control | [11] 95 % of control | [12] 103 % of control

N#C/C(=C\c1ccc2c(c1)CCC2)C(N)=O
inactive: [1] 105 % of control | [4] 95 % of control | [6] 95 % of control

CC(=O)OC(C)(C)/N=N/C(C)(C)OC(C)=O
inactive: [9] 94 % of control | dose: 100.0 mg/kg/injection, schedule: Q01DX009 (ip), vehicle: Klucel (hydroxypropylcellulose) (HPC) 101 % of control | [10] 108 % of control | [11] 108 % of control | dose: 200.0 mg/kg/injection, schedule: Q01DX009 (ip), vehicle: Klucel (hydroxypropylcellulose) (HPC) 101 % of control | [12] 101 % of control | dose: 400.0 mg/kg/injection, schedule: Q01DX001 (ip), vehicle: Klucel (hydroxypropylcellulose) (HPC) 103 % of control | dose: 400.0 mg/kg/injection, schedule: Q01DX009 (ip), vehicle: Klucel (hydroxypropylcellulose) (HPC) 101 % of control | [13] 103 % of control

O=C(N/N=C/c1ccccc1O)c1cc2ccccc2cc1O
inactive: [2] 91 % of control | [3] 86 % of control | [5] 90 % of control

CCOC(=O)C1CN(C2CCCCC2)CCC1=O (stereo not drawn)
inactive: dose: 18.75 mg/kg/injection, schedule: Q01DX009 (ip), vehicle: saline 93 % of control | dose: 37.5 mg/kg/injection, schedule: Q01DX009 (ip), vehicle: saline 92 % of control | dose: 37.5 mg/kg/injection, schedule: Q04DX003 (ip), vehicle: saline 98 % of control | [7] 102 % of control | dose: 75.0 mg/kg/injection, schedule: Q01DX009 (ip), vehicle: saline 93 % of control | dose: 75.0 mg/kg/injection, schedule: Q04DX003 (ip), vehicle: saline 100 % of control | [8] 95 % of control | dose: 150.0 mg/kg/injection, schedule: Q04DX003 (ip), vehicle: saline 94 % of control

COc1ccc2c(c1)CCC2=O
inactive: dose: 50.0 mg/kg/injection, schedule: Q01DX009 (ip), vehicle: saline with Tween-80 112 % of control | [2] 112 % of control | [10] 91 % of control | [12] 96 % of control

N=C(N)SCCCN
inactive: dose: 100.0 mg/kg/injection, schedule: Q01DX009 (ip), vehicle: saline 108 % of control | dose: 100.0 mg/kg/injection, schedule: Q04DX003 (ip), vehicle: saline 101 % of control | dose: 200.0 mg/kg/injection, schedule: Q04DX003 (ip), vehicle: saline 100 % of control

CCCCCCCCCCCCCCCC(S(=O)(=O)CC)S(=O)(=O)CC
inactive: [10] 93 % of control | [12] 97 % of control | [13] 87 % of control

O=C1c2c(Cl)cccc2Cc2cccc(Cl)c21
inactive: dose: 37.5 mg/kg/injection, schedule: Q01DX001 (ip), vehicle: Klucel (hydroxypropylcellulose) (HPC) 107 % of control | dose: 75.0 mg/kg/injection, schedule: Q01DX001 (ip), vehicle: Klucel (hydroxypropylcellulose) (HPC) 102 % of control | dose: 150.0 mg/kg/injection, schedule: Q01DX001 (ip), vehicle: Klucel (hydroxypropylcellulose) (HPC) 100 % of control

CCOC(=O)C(OCc1ccccc1)(C(=O)NCCc1ccc(OC)c(OC)c1)C(C)C (stereo not drawn)
inactive: dose: 25.0 mg/kg/injection, schedule: Q01DX009 (ip), vehicle: other 108 % of control | dose: 50.0 mg/kg/injection, schedule: Q01DX009 (ip), vehicle: other 108 % of control | dose: 100.0 mg/kg/injection, schedule: Q01DX009 (ip), vehicle: other 103 % of control | dose: 200.0 mg/kg/injection, schedule: Q01DX009 (ip), vehicle: other 99 % of control | dose: 400.0 mg/kg/injection, schedule: Q01DX009 (ip), vehicle: other 91 % of control

Cc1ccc(O)c(C2CC3CCC2C3)c1 (stereo not drawn)
inactive: dose: 100.0 mg/kg/injection, schedule: Q04DX003 (ip), vehicle: saline + alcohol 97 % of control | dose: 200.0 mg/kg/injection, schedule: Q04DX003 (ip), vehicle: saline + alcohol 92 % of control | dose: 400.0 mg/kg/injection, schedule: Q04DX003 (ip), vehicle: saline + alcohol 95 % of control

CC(=O)c1ccc(N=Nc2ccc(N(C)C)cc2)cc1
inactive: dose: 100.0 mg/kg/injection, schedule: Q01DX009 (ip), vehicle: carboxymethylcellulose (CMC) 100 % of control and 110 % of control | dose: 100.0 mg/kg/injection, schedule: Q04DX002 (ip), vehicle: carboxymethylcellulose (CMC) 100 % of control | dose: 100.0 mg/kg/injection, schedule: Q04DX003 (ip), vehicle: carboxymethylcellulose (CMC) 100 % of control | dose: 200.0 mg/kg/injection, schedule: Q01DX009 (ip), vehicle: carboxymethylcellulose (CMC) 98 % of control and 102 % of control | dose: 200.0 mg/kg/injection, schedule: Q04DX002 (ip), vehicle: carboxymethylcellulose (CMC) 93 % of control | dose: 200.0 mg/kg/injection, schedule: Q04DX003 (ip), vehicle: carboxymethylcellulose (CMC) 101 % of control | dose: 400.0 mg/kg/injection, schedule: Q01DX009 (ip), vehicle: carboxymethylcellulose (CMC) 95 % of control and 90 % of control | dose: 400.0 mg/kg/injection, schedule: Q04DX002 (ip), vehicle: carboxymethylcellulose (CMC) 88 % of control | dose: 400.0 mg/kg/injection, schedule: Q04DX003 (ip), vehicle: carboxymethylcellulose (CMC) 101 % of control
